Test results reported in paper PMC7985297 (Communications Biology, 2021).
Values joined by “and” are separate entries in the source; they are usually repeats but may differ in a detail not shown here. Equal values may be shown once. “Also recorded” adds a separate entry of the source.

Key:
LN95 cells [1] = experiment: Colony formation of LN95 cells; type: cell-based, human; conditions: LN95, ATRA 5 or 10 µM, EPI-002 25 µM, treated 24 hours then re-plated
Description: page 5: Supplementary Figure 5 a b […] (a) Representative images of colonies from LN95 cells after […] EPI-002. After treating with compounds for 24 hours, the media was removed, and 500 -1,000 cells were re-plated in 6-well plates. Colonies were fixed with 4% paraformaldehyde, stained with a 0.1% crystal violet solution, and then imaged. […]

serum PSA = experiment: Quantification of serum PSA (ELISA) in xenograft-bearing mice; type: in vivo; conditions: ATRA compared to placebo; on average; did not reach statistical significance
Description: Serum levels for total PSA were measured by a PSA ELISA kit (Anogen, Mississauga, ON) with a lower limit sensitivity of ~1 ng/mL. Whole blood was sampled from the tail vein on days indicated or by cardiac puncture immediately after euthanasia. The serum fraction was separated by centrifugation at 12,000 rpm for 3 min at room temperature and then stored at −20 °C until further analysis. Serum samples were diluted tenfold for the assay and were compared to calibration standards, according to the manufacturer’s protocol. The concentration of total PSA was determined by a VersaMax ELISA microplate reader by measuring absorbance at 450 nm with a reference wavelength of 650 nm.

LN95 cells [2] = experiment: Cell cycle analysis by flow cytometry, LN95; conditions: LN95, ATRA 5 and 10 μM, EPI-002 25 μM, 24 or 48 h
Description: After treatments, the cells were labeled with BrdU (10 μM) for 2 h and then trypsinized, washed, and fixed in 70% EtOH/PBS at −20 °C. Approximately 2.5–5.0 × 10^5 of fixed cells were labeled with fluorescein (FITC)-conjugated anti-BrdU antibody (B44; BD Biosciences) and the DNA content was stained with 7-AAD (Sigma). The data were collected with a BD FACSCalibur flow cytometer (BD Biosciences). FITC and 7-AAD fluorescence were detected in the FL1 and FL3 channels, respectively, using CellQuest Pro and analyzed by FlowJo V10 software (Ashland, Oregon). Pre-gating was performed on all samples by plotting FL3-W × FL3-H to exclude doublets from the analysis.

[3] = system: Pin1, Cyclin D1, Skp2 and AR in LN95-D3 tumors; experiment: Western blot of harvested LN95-D3 xenograft tumors (Pin1, Cyclin D1, Skp2, AR); type: in vivo, mice; conditions: ATRA pellets compared to placebo
Description: Scale bars represent 5 mm (f) western blot analysis showing the expression of Pin1, Cyclin D1, Skp2, and AR from representative tumors. Quantification of the data is shown for g Pin1 and h Skp2, where the error bars represent the mean ± s.e.m.
All experiments involving animals conform to the relevant regulatory and ethical standards and were approved by the University of British Columbia Animal Care Committee (A18-0077). Metacam (1 mg/kg, 0.05 mL/10 g of body weight) was administered subcutaneously prior to any surgery. Animals were anesthetized with isoflurane and euthanized by CO2. Six–eight-week-old male (NOD-scid IL2Rgamma^null) mice were maintained in the Animal Care Facility at the British Columbia Cancer Research Centre. Mice were castrated 2 weeks before they were subcutaneously inoculated in the right flank with two million LN95-D3 cells in a 1:1 volume of matrigel (Corning Discovery Labware, Corning, NY). […] Tumors were excised 1 day after the last dose and prepared for western blot analysis and immunohistochemistry.

[4] = target: T1, Gal4-ARN fragments and Gal4-AR234–391 constructs (Homo sapiens, UniProt P10275); experiment: Transactivation assay with Gal4-ARN fragments and Gal4-AR234–391 proline to glycine mutants; type: cell-based; conditions: juglone 20 µM, IL-6 50 ng/mL, 24 h
T1 construct: expressed in transfected cells; host or cells: LNCaP
Description: (§1) Fig. 3 Pin1 interacts with the AR NTD and regulates transactivation. a, b Transactivation assays performed in LNCaP cells expressing a vector encoding the human AR NTD fused to a Gal4 DNA-binding domain (Gal4-ARN). […] Input samples show Pin1 expression from lysates before the pull-down. i Co-immunoprecipitation assay showing AR protein co-immunoprecipitated with STAT3 from LNCaP cells incubated with EPI-002 (EPI, 35 μM), juglone (JUG, 30 μM), or vehicle (VEH, DMSO), and IL-6 (50 ng/mL) for 6 h. j, k Levels of phosphorylated MAPK (isoforms p44 and p42) and phosphorylated STAT3 (Tyr705 and Ser727) from LNCaP cells pre-treated with juglone (20 µM) and then stimulated with IL-6 (50 ng/mL) for 15 min. Error bars show the mean ± s.e.m. *P < 0.05, **P < 0.01, ***P < 0.001; ns not significant.

[5] = target: T2, Gal4-ARN fragments and Gal4-AR234–391 constructs (Homo sapiens, UniProt P10275, P311G); experiment: as above; type: cell-based; conditions: juglone 20 µM, IL-6 50 ng/mL, 24 h
T2 construct: expressed in transfected cells; host or cells: LNCaP
T2 sequence (P10275 236-393 P311G): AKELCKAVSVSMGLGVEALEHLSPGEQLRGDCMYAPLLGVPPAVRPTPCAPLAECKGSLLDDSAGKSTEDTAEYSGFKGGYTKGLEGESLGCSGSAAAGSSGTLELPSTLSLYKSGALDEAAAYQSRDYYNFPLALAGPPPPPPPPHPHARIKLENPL
Description: as §1

[6] = target: T3, Gal4-ARN fragments and Gal4-AR234–391 constructs (Homo sapiens, UniProt P10275, P259G); experiment: as above; type: cell-based; conditions: juglone 20 µM, IL-6 50 ng/mL, 24 h
T3 construct: expressed in transfected cells; host or cells: LNCaP
T3 sequence (P10275 236-393 P259G): as the sequence (P10275 236-393 P311G) above, with P24G, G76P counted along it
Description: as §1

[7] = system: Gal4-ARN fragments and Gal4-AR234–391 constructs; experiment: as above; type: cell-based, human; conditions: juglone 20 µM, IL-6 50 ng/mL, 24 h
Description: as §1

[8] = target: T4, human AR NTD (AR1–558) fused to Gal4DBD (Gal4-ARN) (Homo sapiens, UniProt P10275); experiment: AR NTD transactivation assay (Gal4-ARN) in LNCaP cells; type: cell-based; conditions: EPI-002 25 μM, juglone 20 μM, ATRA 10 μM, 24 h
T4 construct: construct encoding the human AR1–558 of the NTD fused to a Gal4DBD (Gal4-ARN); expressed in transfected cells; host or cells: LNCaP
T4 sequence (P10275 1-558): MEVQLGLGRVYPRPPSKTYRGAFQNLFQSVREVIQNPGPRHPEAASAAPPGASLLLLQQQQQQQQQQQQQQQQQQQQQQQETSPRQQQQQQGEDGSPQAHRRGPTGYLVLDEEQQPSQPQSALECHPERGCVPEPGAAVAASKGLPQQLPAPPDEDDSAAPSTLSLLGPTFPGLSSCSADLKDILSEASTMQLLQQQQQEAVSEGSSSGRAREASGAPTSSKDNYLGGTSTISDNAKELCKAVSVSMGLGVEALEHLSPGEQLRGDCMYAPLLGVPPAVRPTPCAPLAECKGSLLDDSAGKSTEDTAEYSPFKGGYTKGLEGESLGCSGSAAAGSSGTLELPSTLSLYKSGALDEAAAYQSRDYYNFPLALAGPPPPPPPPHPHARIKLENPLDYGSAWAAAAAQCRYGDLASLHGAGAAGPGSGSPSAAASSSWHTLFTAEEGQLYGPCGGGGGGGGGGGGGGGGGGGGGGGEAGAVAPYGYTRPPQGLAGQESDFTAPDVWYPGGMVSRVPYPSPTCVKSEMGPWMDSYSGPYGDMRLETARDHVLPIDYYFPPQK
Excerpt: The remaining putative Pin1-binding sites are within the intrinsically disordered AR NTD that contains transcription activation units, Tau-1 and Tau-5, to mediate androgen-dependent and androgen-independent transactivation, respectively[5],[30]. The loss of AR-LBD shifts the location of transcriptional activity from Tau-1 with androgen, to Tau-5 in the absence of LBD[30].
Error bars show the mean ± s.e.m. *P < 0.05, **P < 0.01, ***P < 0.001; ns not significant.

[9] = target: T5, AR interaction with STAT3 (Homo sapiens, UniProt P10275, T878A); experiment: Co-immunoprecipitation of AR with STAT3 from LNCaP cells; type: cell-based; conditions: juglone 30 μM, IL-6 50 ng/mL, 6 h
T5 construct: Endogenous STAT3 complexes were co-immunoprecipitated from LNCaP cells treated with juglone and IL-6; endogenous in cells; host or cells: LNCaP
T5 sequence (P10275 whole entry T878A): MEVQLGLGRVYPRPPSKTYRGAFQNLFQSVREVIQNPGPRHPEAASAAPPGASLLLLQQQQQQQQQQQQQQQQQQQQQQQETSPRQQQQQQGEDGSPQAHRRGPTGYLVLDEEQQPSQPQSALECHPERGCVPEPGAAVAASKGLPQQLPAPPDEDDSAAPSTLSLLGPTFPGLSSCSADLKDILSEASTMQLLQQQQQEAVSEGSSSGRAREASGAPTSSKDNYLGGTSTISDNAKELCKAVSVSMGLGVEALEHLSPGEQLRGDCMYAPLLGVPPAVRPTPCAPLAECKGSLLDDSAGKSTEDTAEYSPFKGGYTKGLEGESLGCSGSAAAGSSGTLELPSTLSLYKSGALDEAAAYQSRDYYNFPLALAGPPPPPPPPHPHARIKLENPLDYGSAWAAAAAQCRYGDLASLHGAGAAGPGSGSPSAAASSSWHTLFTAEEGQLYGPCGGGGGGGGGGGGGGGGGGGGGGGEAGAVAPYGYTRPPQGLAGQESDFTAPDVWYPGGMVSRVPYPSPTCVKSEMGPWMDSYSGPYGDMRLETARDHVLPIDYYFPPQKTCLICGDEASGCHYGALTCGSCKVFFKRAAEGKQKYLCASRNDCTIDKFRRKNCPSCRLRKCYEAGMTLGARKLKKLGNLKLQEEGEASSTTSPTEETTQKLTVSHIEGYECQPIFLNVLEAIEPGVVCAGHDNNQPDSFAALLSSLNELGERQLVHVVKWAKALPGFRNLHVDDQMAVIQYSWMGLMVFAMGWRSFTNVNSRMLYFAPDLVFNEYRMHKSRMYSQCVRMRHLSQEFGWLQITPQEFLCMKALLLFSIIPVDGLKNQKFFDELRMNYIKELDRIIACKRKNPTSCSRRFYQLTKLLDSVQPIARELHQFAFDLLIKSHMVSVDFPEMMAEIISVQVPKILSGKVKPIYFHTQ
Description: as §1

Row | SMILES | effect on colony formation (LN95 cells [1]) | reduction of PSA expression in sera, pilot study (serum PSA) [%] | effect on cell cycle / S phase population (LN95 cells [2]) | Pin1 (and cyclin D1) levels in xenografts [3] | transactivation, AR234-391 (Fig. 3e) [4] | transactivation, Gal4-AR234–391 P309G (Fig. 3f) [5] | transactivation, Gal4-AR234–391 P257G (Fig. 3f) [6] | effect on IL-6-induced transactivation of Gal4-AR234–391 proline to glycine mutants [7] | effect on IL-6-induced transactivation of Gal4-AR NTD fragments (construct named in the value) [7] | transactivation, Gal4DBD (Fig. 3f) [7] | effect on IL-6-induced transactivation of AR NTD (Gal4-ARN) ([8]; IL-6 50 ng/mL) | effect on forskolin-induced transactivation of AR NTD (Gal4-ARN) ([8]; forskolin 25 μM) | reduction of the amount of AR interacting with STAT3 [9]
1 | CC1=C(/C=C/C(C)=C/C=C/C(C)=C/C(=O)O)C(C)(C)CCC1 [ATRA, all-trans retinoic acid] | inhibited the ability of LN95 cells to form colonies in a dose-dependent manner | 27 | reduced the S phase population in a dose- and time-dependent manner | decrease in Pin1 levels; also recorded: decreased levels of Pin1 and its target cyclin D1 |  |  |  |  |  |  |  |  | 
2 | O=C1C=CC(=O)c2c(O)cccc21 [juglone] |  |  |  |  | 5.441 and 3.73 and 3.732 | 4.289 and 4.331 and 7.708 | 5.034 and 6.44 and 8.824 | inhibited the P257G and P309G mutants to levels that were comparable to wild-type; also recorded: had no effect on the P257G/P309G double mutant | inhibited transactivation of AR 234–391 and intact AR NTD (1–558); also recorded: only had a modest effect on AR 392–558; also recorded: did not inhibit the activity of Gal4DBD (empty vector) or AR 1–233 | 0.951 and 0.829 and 0.839 | only inhibited IL-6-induced transactivation | only inhibited IL-6-induced transactivation | ~ 50%
